Experimental data: US11629139B2 (priority 2017, dated 2023)

tested on: vesicular stomatitis virus particles (VSV) pseudotyped with EboV Zaire GP; experiment: microbe, parasite or virus in culture; format: cell-based; details: Vesicular stomatitis virus

Compound	IC50 [µM]
Nc1cc(Cl)cc(CN2CCN(C(=O)CNC(=O)CC3CCC(F)(F)CC3)CC2)c1 [Compound 1385, N-(2-(4-(3-Amino-5-chlorobenzyl)piperazin-1-yl)-2-oxoethyl)-2-(4,4-difluorocyclohexyl)acetamide]	2.2
CC(=O)N1CCCC(Oc2cc(F)cc(CN3CCN(C(=O)CNC(=O)C4CC45CCC(F)(F)CC5)CC3)c2)C1 (centres unmarked) [Compound 1453]	> 5
COC(=O)c1ccc(COc2ccc(Cl)cc2CN2CCN(C(=O)CNC(=O)C(F)(F)C(F)F)CC2)cc1 [Compound 1358, Methyl 4-((4-chloro-2-((4-((2,2,3,3-tetrafluoropropanoyl)glycyl)piperazin-1-yl)methyl)phenoxy)methyl)benzoate]	0.2
CS(=O)(=O)c1ccc(Oc2cc(Cl)cc(CN3CCN(C(=O)CNC(=O)C4CC45CCC(F)(F)CC5)CC3)c2)cc1 (centres unmarked) [Compound 1461]	0.15
[2H]C([2H])(c1cc(Cl)ccc1NCc1ccon1)N1CCN(C(=O)CNC(=O)[C@@H]2CC23CCC(F)(F)CC3)CC1 [Compound 1581]	0.47
COC(=O)c1ccc(COc2ccc(Cl)cc2CN2CCN(C(=O)CNC(=O)CC3CCC(F)(F)CC3)CC2)cc1 [Compound 1333, Methyl 4-((4-chloro-2-((4-((2-(4,4-difluorocyclohexyl)acetyl)glycyl)piperazin-1-yl)methyl)phenoxy)methyl)benzoate]	0.015
[2H]C([2H])(c1cc(Cl)ccc1NCc1cnco1)N1CCN(C(=O)CNC(=O)C2CC23CCC(F)(F)CC3)CC1 (centres unmarked) [Compound 1560]	0.04
CS(=O)(=O)c1ccc(Oc2cc(F)cc(CN3CCN(C(=O)CNC(=O)C4CC45CCC(F)(F)CC5)CC3)c2)cc1 (centres unmarked) [Compound 1459]	0.2
O=C(CC1CCC(F)(F)CC1)NCC(=O)N1CCN(Cc2cc(Cl)ccc2F)CC1 [Compound 1367, N-(2-(4-(5-chloro-2-fluorobenzyl)piperazin-1-yl)-2-oxoethyl)-2-(4,4-difluorocyclohexyl)acetamide]	> 2
Nc1c(Cl)cccc1CN1CCN(C(=O)CNC(=O)C2CC23CCC(F)(F)CC3)CC1 (centres unmarked) [Compound 1407, N-(2-(4-(2-Amino-3-chlorobenzyl)piperazin-1-yl)-2-oxoethyl)-6,6-difluorospiro[2.5]octane-1-carboxamide]	0.23 to 0.5
COC(=O)c1ccc(COc2ccccc2CN2CCN(C(=O)CNC(=O)C3CC34CCCCC4)CC2)cc1 (centres unmarked) [Compound 1316, Methyl 4-((2-((4-((spiro[2.5]octane-1-carbonyl)glycyl)piperazin-1-yl)methyl)phenoxy)methyl)benzoate]	0.07
Nc1ccc(C2CC2)cc1CN1CCN(C(=O)CNC(=O)C2CC23CCC(F)(F)CC3)CC1 (centres unmarked) [Compound 1397]	2.4 to 4.2
O=C(CC12CC3CC(C1)CC(n1cncn1)(C3)C2)NCC(=O)N1CCN(Cc2ccccc2OCc2ccc(Br)cc2)CC1 [Compound 1246]	< 2
CNc1ccc(Cl)cc1CN1CCN(C(=O)CNC(=O)C2CC23CCC(F)(F)CC3)CC1 (centres unmarked) [Compound 1391, N-(2-(4-(5-Chloro-2-(methylamino)benzyl)piperazin-1-yl)-2-oxoethyl)-6,6-difluorospiro[2.5]octane-1-carboxamide]	0.08 to 0.26
O=C(CC1CCC(F)(F)CC1)NCC(=O)N1CCN(Cc2cc(Cl)c(F)cc2F)CC1 [Compound 1368, N-(2-(4-(5-chloro-2,4-difluorobenzyl)piperazin-1-yl)-2-oxoethyl)-2-(4,4-difluorocyclohexyl)acetamide]	> 2
COC(=O)CCCOc1ccc(Cl)cc1CN1CCN(C(=O)CNC(=O)CC23CC4CC(CC(C4)C2)C3)CC1 [Compound 1303, Methyl 4-(2-((4-((2-((1R,3R,5S)-Adamantan-1-yl)acetyl)glycyl)piperazin-1-yl)methyl)-4-chlorophenoxy)butanoate]	~2
CCC1(CC)CC1C(=O)NCC(=O)N1CCN(Cc2cc(Cl)ccc2O)CC1 (centres unmarked) [Compound 1399, N-(2-(4-(5-Chloro-2-hydroxybenzyl)piperazin-1-yl)-2-oxoethyl)-2,2-diethylcyclopropane-1-carboxamide]	0.22
Nc1ncc(Cl)cc1CN1CCN(C(=O)CNC(=O)CC23CC4CC(CC(C4)C2)C3)CC1 [Compound 1304, 2-((1R,3R,5S)-Adamantan-1-yl)-N-(2-(4-((2-amino-5-chloropyridin-3-yl)methyl)piperazin-1-yl)-2-oxoethyl)acetamide]	> 1.5
O=C(CC12CC3CC(CC(C3)C1)C2)NCC(=O)N1CCN(Cc2cc(Cl)cc(F)c2F)CC1 [Compound 1327, 2-((1R,3R,5S)-Adamantan-1-yl)-N-(2-(4-(5-chloro-2,3-difluorobenzyl)piperazin-1-yl)-2-oxoethyl)acetamide]	0.67
COC(=O)c1ccc(COc2ccc(F)cc2CN2CCN(C(=O)CNC(=O)CC3(C)CCCCC3)CC2)cc1 [Compound 1336, Methyl 4-((4-fluoro-2-((4-((2-(1-methylcyclohexyl)acetyl)glycyl)piperazin-1-yl)methyl)phenoxy)methyl)benzoate]	0.051

Compound	IC50 [µM]
O=C(CC12CC3CC(CC(C3)C1)C2)NCC(=O)N1CCN(Cc2cc(F)c(F)cc2Cl)CC1 [Compound 1353, 2-((1R,3R,5S)-Adamantan-1-yl)-N-(2-(4-(2-chloro-4,5-difluorobenzyl)piperazin-1-yl)-2-oxoethyl)acetamide]	1.5
O=C(CC1CCC(F)(F)CC1)NCC(=O)N1CCN(Cc2cc(Cl)cc3cccnc23)CC1 [Compound 1422, N-(2-(4-((6-Chloroquinolin-8-yl)methyl)piperazin-1-yl)-2-oxoethyl)-2-(4,4-difluorocyclohexyl)acetamide]	0.36
O=C(CC1CCC(F)(F)CC1)NCC(=O)N1CCN(Cc2cc(Cl)ccc2NC(=O)C2CC2)CC1 [Compound 1378, N-(4-Chloro-2-((4-((2-(4,4-difluorocyclohexyl)acetyl)glycyl)piperazin-1-yl)methyl)phenyl)cyclopropanecarboxamide]	> 2
O=C(CC1CCC(F)(F)CC1)NCC(=O)N1CCN(Cc2cc(Cl)cc(Cl)c2O)CC1 [Compound 1401, N-(2-(4-(3,5-Dichloro-2-hydroxybenzyl)piperazin-1-yl)-2-oxoethyl)-2-(4,4-difluorocyclohexyl)acetamide]	3.7
O=C(Cc1cccc2ccccc12)NCC(=O)N1CCN(Cc2ccccc2OCc2ccc(Br)cc2)CC1 [Compound 1136]	> 2
O=C(CC12CC3CC(C1)C(C3)C2)NCC(=O)N1CCN(Cc2cc(F)ccc2OCc2ccc3nonc3c2)CC1 [Compound 1444]	0.025
CC1(CC(=O)NCC(=O)N2CCN(Cc3ccccc3OCc3ccc(Br)cc3)CC2)CCCCC1 [Compound 1142]	0.52
O=C(CC1CCC(F)(F)CC1)NCC(=O)N1CCN(Cc2cc(Cl)cc(Cl)c2)CC1 [Compound 1383, N-(2-(4-(3,5-dichlorobenzyl)piperazin-1-yl)-2-oxoethyl)-2-(4,4-difluorocyclohexyl)acetamide]	> 2
COC(=O)c1ccc(COc2ccccc2C(C)N2CCN(C(=O)CNC(=O)CC34CC5CC(CC(C5)C3)C4)CC2)cc1 (centres unmarked) [Compound 1122]	~2
O=C(NCC(=O)N1CCN(Cc2cc(Br)ccc2Cl)CC1)C1C2CC(F)(F)CC21 (centres unmarked) [Compound 1356, N-(2-(4-(5-bromo-2-chlorobenzyl)piperazin-1-yl)-2-oxoethyl)-3,3-difluorobicyclo[3.1.0]hexane-6-carboxamide]	> 2
CS(=O)(=O)c1ccc(Oc2cc(Cl)cc(CN3CCN(C(=O)CNC(=O)CC4CCC(F)(F)CC4)CC3)c2)cc1 [Compound 1462]	> 1
COC(=O)c1ccc(/C=C/c2ccccc2CN2CCN(C(=O)CNC(=O)CC34CC5CC(CC(C5)C3)C4)CC2)cc1 [Compound 1253]	1.5
COC(=O)c1ccc(COc2ccccc2CN2CCN(C(=O)CNC(=O)C3(C)CCC(F)(F)CC3)CC2)cc1 [Compound 1328, Methyl 4-((2-((4-((4,4-difluoro-1-methylcyclohexane-1-carbonyl)glycyl)piperazin-1-yl)methyl)phenoxy)methyl)benzoate]	0.25
COC(=O)c1ccc(COc2ccccc2CN2CCN(C(=O)CNC(=O)CC3CCC(F)(F)CC3)CC2)cc1 [Compound 1275, Methyl 4-((2-((4-((2-(4,4-difluorocyclohexyl)acetyl)glycyl)piperazin-1-yl)methyl)phenoxy)methyl)benzoate]	0.05
O=C(CC12CC3CC(CC(C3)C1)C2)NCC(=O)N1CCN(Cc2c(F)ccc(Cl)c2F)CC1 [Compound 1306, 2-((1R,3R,5S)-Adamantan-1-yl)-N-(2-(4-(3-chloro-2,6-difluorobenzyl)piperazin-1-yl)-2-oxoethyl)acetamide]	1.35
COC(=O)c1ccc(COc2ccc(Cl)cc2CN2CCN(C(=O)CNC(=O)CC34CC5CC(CC(C5)C3)C4)CC2)cc1 [Compound 1118]	0.001
CS(=O)(=O)c1ccc(COc2ccc(F)cc2CN2CCN(C(=O)CNC(=O)CC34CC5CC(CC(C5)C3)C4)CC2)cc1 [Compound 1443]	0.0045
O=C(CC12CC3CC(CC(C3)C1)C2)NCC(=O)N1CCN(Cc2cc(Cl)cc(C(F)(F)F)c2)CC1 [Compound 1326, 2-((1R,3R,5S)-Adamantan-1-yl)-N-(2-(4-(3-chloro-5-(trifluoromethyl)benzyl)piperazin-1-yl)-2-oxoethyl)acetamide]	0.92
COC(=O)c1ccc(COc2ccc(C#N)cc2CN2CCN(C(=O)CNC(=O)CC34CC5CC(CC(C5)C3)C4)CC2)cc1 [Compound 1117]	0.05
O=C(CC12CC3CC(CC(C3)C1)C2)NCC(=O)N1CCN(Cc2cc(Br)ccc2Cl)CC1 [Compound 1338, 2-((1R,3R,5S)-Adamantan-1-yl)-N-(2-(4-(5-bromo-2-chlorobenzyl)piperazin-1-yl)-2-oxoethyl)acetamide]	0.082

same assay, conditions: read-out: IC50

Compound	IC50 [µM]
O=C(CC12CC3CC(CC(C3)C1)C2)NCC(=O)N1CCN(Cc2cc(Cl)ccc2C(F)(F)F)CC1 [Compound 1308, 2-((1R,3R,5S)-Adamantan-1-yl)-N-(2-(4-(5-chloro-2-(trifluoromethyl)benzyl)piperazin-1-yl)-2-oxoethyl)acetamide]	> 2
